# Laboratory results as given in patent publication US9763874B2, “Nanoparticles loaded with chemotherapeutic antitumoral drug” (priority 2011, dated 2017).
# What was measured:
# HCC = settings: IV infusion in HCC; cited from earlier work
# healthy Wistar rats = assay: Example 2: adverse effects after a single IV bolus injection (mortality, lung injuries); assay type: in vivo, rat; settings: 7.5 mg/kg single IV bolus
# Procedure: The aim of the present in vivo study was to establish and assess a rat model able to induce toxicological signs and lung injuries similar to severe pulmonary adverse events observed in said clinical trial.
# The dose levels of 5, 7.5 and 10 mg/kg were chosen according to previous in vivo studies, they respectively correspond to 30 mg/m2, 45 mg/m2 and 60 mg/m2 human doses.
# The study involved finally 123 male Wistar rats.
# Rats were weighted and distributed according to their individual body weight to form […] the day of IV treatment.
# Drug suspension was administered according to the body weight of rat determined just before the administration, so as to administer a dose volume of 670 μl of a 3.71 mg/ml suspension to a 250 g rat. • The rats from groups 13 to 16 received a single IV injection of Doxorubicin at 7.5 mg/kg equivalent Doxorubicin HCl (Q1Dx1). […] Solution was administered according to the body weight of rat determined just before the administration, so as to administer a dose volume of 670 μl solution to a 250 g rat. • The rats from group 21 (Untreated control group) received no treatment.
# Treatment allocation was decided at random and was as disclosed in Table 2.
# unresectable HCC = settings: patients with unresectable HCC; cited from earlier work
Compound,objective response rate (HCC),mortality and lung injuries (healthy Wistar rats),overall survival over placebo (unresectable HCC)
"COc1cccc2c1C(=O)c1c(O)c3c(c(O)c1C2=O)C[C@@](O)(C(=O)CO)C[C@@H]3O[C@H]1C[C@H](N)[C@H](O)[C@H](C)O1 [Doxorubicin, doxorubicin]",5-10%,"Neither mortality, nor lung injuries",–
CNC(=O)c1cc(Oc2ccc(NC(=O)Nc3ccc(Cl)c(C(F)(F)F)c3)cc2)ccn1 [sorafenib],–,–,increase even modest
